# Measurements as given in US20090074802A1, “IMMUNOMODULATING OLIGOPEPTIDES” (priority 2006, published 2009).
# Test system: Balb/c mice immunized with KLH
# Experiment: Humoral immune response to T-cell dependent antigen (KLH) in mice; isotype-specific anti-KLH ELISA of serum
# Assay type: in vivo, mouse
# Conditions: day 28 after a single injection; 20 μg peptide i.p.; KLH 20 μg s.c. with complete Freund adjuvant
# Description: To investigate the effect of B134, a representative of the XPY family, inbred SPF mice (Balb/cAwNCrl, 7 to 8 week old, Charles River Laboratories GmbH, Germany) were immunized with KLH, a T-cell dependent antigen. 3 mice per group were injected subcutaneously in the presence of complete Freund adjuvant (50/50 v/v). The mix of antigen (20 μg in 100 μl) with adjuvant (Sigma, #F-5881) was emulsified and injected in the neck region. At the same day 20 μg of immunomodulator B134 or B211 were injected in 200 μl of PBS intraperitoneally. Samples of blood (50-70 μl) were collected from mice on day 7, 14, 21, and 28 from the leg vein. Serum was prepared by clotting the blood for 2 hours at 37° C., followed by 18 hours at 8° C., and centrifugation at 10,000 rpm in an Eppendorf-like centrifuge. Sera were stored diluted with antibody stabilizer (SkyTec ABB500) at 4° C., and analyzed in ELISA simultaneously. For the latter assay, the 96 wells ELISA plates (Greiner, #655061) were coated with KLH (soluble, Sigma H7017) in phosphate buffered solution (PBS), 0.2 μg/well overnight at 4° C. The diluted sera were incubated with antigen ([…]) for 1 hour at room temperature, followed by a wash with PBS/0.1% Tween-20. The binding of mouse antibodies to KLH was detected using isotype specific anti-mouse immunoglobulins, conjugated with HRP (Southern Biotechnology Ltd., anti-mouse IgM #1021-05, anti-mouse IgG1 #1070-05, anti-mouse IgG2a # 1080-05, anti-mouse IgG2b #1090-05) according to the manufacturer's protocol. TMB was used as a substrate. The results were analyzed on Bio-Rad Microplate Reader Model 550, the optical density was measured at 595 nm.
# Results shown in FIG. 1 represent titration slope of the serum from experimental mice. The dilutions of sera used are from 1/300 to 1/20,000 with a step of ½ (indicated on X axis as 1 to 6 respectively). The serum reactivity is presented as O.D. shown by a sample in ELISA. The dots represent the average reactivity of samples from 3 sera (from 3 mice per condition). The variation bar represents the 95% confidence interval.
Substance,"titer of IgG2a, times higher than in control mice immunized with antigen alone","titer of IgG2b, times higher than in control mice immunized with antigen alone","titre of specific IgG1 in sera, times higher than in control mice immunized with antigen alone","titer of IgM, times higher than in control mice immunized with antigen alone (every isotype analyzed)"
IEWIPY [B211],~4 times,~4 times,approximately 16 times,–
Ile-Pro-Tyr [B134],approximately 2 times,approximately 2 times,approximately 2 times,approximately 2 times
